Consider 40 compounds from patent US20060247320A1, “Compounds for inhibiting KSP kinesin activity” (priority 2005, published 2006).

Structures are written as SMILES.

One assay addresses T1, KSP motor domain (Homo sapiens, UniProt P52732).
T1 sequence (P52732 18-359 limits assumed): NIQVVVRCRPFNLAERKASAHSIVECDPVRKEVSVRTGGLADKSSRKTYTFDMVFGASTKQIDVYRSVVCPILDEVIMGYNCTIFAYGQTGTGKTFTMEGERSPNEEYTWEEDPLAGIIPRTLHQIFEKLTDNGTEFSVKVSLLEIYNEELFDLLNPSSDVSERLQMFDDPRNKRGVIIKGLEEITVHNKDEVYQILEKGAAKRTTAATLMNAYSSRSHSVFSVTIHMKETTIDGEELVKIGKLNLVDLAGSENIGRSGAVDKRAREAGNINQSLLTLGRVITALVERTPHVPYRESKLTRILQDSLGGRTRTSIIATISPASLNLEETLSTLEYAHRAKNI
Kind of assay: biochemical. As to conditions: IC50 (nM), KSP inhibitory activity, end-point assay; class symbols (Table 1).
The IC50 is the concentration that inhibits the measured activity by half. The compound `CC(C)(C)C1CCc2nc3sc(COC(N)=O)cc3cc2C1` (stereo not shown) [Example 147] showed a half-maximal inhibitory concentration (IC50) of 1000 to 10000 nM.

The same assay, now with this note: KSP inhibitory activity, end-point assay; class symbols (Table 1); read-out: IC50.
On to `CC(C)(C)C1CCc2nc3sc(CC#N)cc3cc2C1` (stereo not shown) [Example 148], for which the IC50 lay within 1000 to 10000 nM.

`CC(C)(C)C1CCc2nc3sc(CC(N)=O)cc3cc2C1` (stereo not shown) [Example 149]: the half-inhibitory concentration (IC50) is 1000 to 10000 nM.

`CC(C)(C)C1CCc2nc3sc(CNCc4cc5cc6c(nc5s4)CCC(C(C)(C)C)C6)cc3cc2C1` (stereo not shown) [Example 150]: the IC50 fell in the range of 1000 to 10000 nM.

`CNCc1cc2cc3c(nc2s1)CCC(C(C)(C)C)C3` (stereo not shown) [Example 151]: the IC50 fell in the range of 1000 to 10000 nM.

Turning to `CN(C)Cc1cc2cc3c(nc2s1)CCC(C(C)(C)C)C3` (stereo not shown) [Example 152], the IC50 lay in the range of 1000 to 10000 nM.

As to `CC(C)(C)C1CCc2nc3sc(CN)cc3cc2C1` (stereo not shown) [Example 153], the IC50 fell in the range of 1000 to 10000 nM.

For `CC(=O)NCc1cc2cc3c(nc2s1)CCC(C(C)(C)C)C3` (stereo not shown) [Example 154], the IC50 was in the range of 1000 to 10000 nM.

For `CC(C)(C)C1CCc2nc3sc(CNC(=O)C4CC4)cc3cc2C1` (stereo not shown) [Example 155], the IC50 lay within 1000 to 10000 nM.

For the compound `CC(C)(C)C1CCc2nc3sc(CNC(N)=O)cc3cc2C1` (stereo not shown) [Example 156], the IC50 was in the range of 100 to 1000 nM.

As to `CC(C)[C@@H](CO)NC(=O)c1cc2cc3c(nc2s1)CCC(C(C)(C)C)C3` (stereo partly drawn) [Example 157, 6-tert-Butyl-5,6,7,8-tetrahydrothieno[2,3-b]quinoline-2-carboxylic acid [(1S)-1-hydroxymethyl-2-methyl-propyl]amide], the IC50 is over 10000 nM.

As to `CC[C@@H](CO)NC(=O)c1cc2cc3c(nc2s1)CCC(C(C)(C)C)C3` (stereo partly shown) [Example 158], the concentration for half-maximal inhibition (IC50) is over 10000 nM.

`CC(C)(C)C1CCc2nc3sc(C(=O)N[C@H](CO)Cc4ccccc4)cc3cc2C1` (stereo partly shown) [Example 159]: the IC50 was over 10000 nM.

For the compound `CC(C)(C)C1CCc2nc3sc(C(=O)N[C@H](CO)c4ccccc4)cc3cc2C1` (stereo partly shown) [Example 160], the IC50 was in the range of 1000 to 10000 nM.

Regarding `CC(C)(C)C1CCc2nc3sc(C(=O)N[C@H](CO)Cc4ccc(O)cc4)cc3cc2C1` (stereo partly drawn) [Example 161, 6-tert-Butyl-5,6,7,8-tetrahydrothieno[2,3-b]quinoline-2-carboxylic acid [2-hydroxy-(1S)-1-(4-hydroxybenzyl)ethyl]amide], the IC50 was over 10000 nM.

For the compound `CC(C)[C@@H](C#N)NC(=O)c1cc2cc3c(nc2s1)CCC(C(C)(C)C)C3` (stereo partly drawn) [Example 162, 6-tert-Butyl-5,6,7,8-tetrahydrothieno[2,3-b]quinoline-2-carboxylic acid [(1S)-1-cyano-2-methylpropyl]amide], the IC50 was over 10000 nM.

On to `CC(C)(C)C1CCc2nc3sc(C(=O)N[C@H](C#N)Cc4ccccc4)cc3cc2C1` (stereo partly drawn) [Example 163, 6-tert-Butyl-5,6,7,8-tetrahydrothieno[2,3-b]quinoline-2-carboxylic acid [(1S)-1-cyano-2-phenylethyl)amide], for which the IC50 is over 10000 nM.

Regarding `CC(C)(C)C1CCc2nc3sc(C(=O)N[C@H](C#N)Cc4ccc(O)cc4)cc3cc2C1` (stereo partly shown) [Example 164], the IC50 lay within 100 to 1000 nM.

`CC(C)(C)C1CCc2nc3sc(C(=O)N[C@H](C#N)c4ccccc4)cc3cc2C1` (stereo partly shown) [Example 165]: the IC50 was over 10000 nM.

As to `CC[C@@H](C#N)NC(=O)c1cc2cc3c(nc2s1)CCC(C(C)(C)C)C3` (stereo partly drawn) [Example 166, 6-tert-Butyl-5,6,7,8-tetrahydrothieno[2,3-b]quinoline-2-carboxylic acid [(1S)-1-cyanopropyl)amide], the 50% inhibitory concentration (IC50) is over 10000 nM.

For the compound `CC(C)(C)C1CCc2nc3sc(C(=O)NCC#N)cc3cc2C1` (stereo not shown) [Example 167, 6-tert-Butyl-5,6,7,8-tetrahydrothieno[2,3-b]quinoline-2-carboxylic acid cyanomethyl-amide], the IC50 was in the range of 100 to 1000 nM.

Consider `CC(C)(C)C1CCc2nc3sc(C(=O)NCC(=N)N)cc3cc2C1` (stereo not shown) [Example 168, 6-tert-Butyl-5,6,7,8-tetrahydrothieno[2,3-b]quinoline-2-carboxylic acid carbamimidoylmethylamide], for which the IC50 is under 100 nM.

Consider `C[C@H](NC(=O)c1cc2cc3c(nc2s1)CCC(C(C)(C)C)C3)C(=N)N` (stereo partly shown) [Example 169], for which the IC50 is under 100 nM.

In the case of `CC[C@H](NC(=O)c1cc2cc3c(nc2s1)CCC(C(C)(C)C)C3)C(=N)N` (stereo partly shown) [Example 170], the IC50 lay in the range of 100 to 1000 nM.

Consider `CC(C)[C@H](NC(=O)c1cc2cc3c(nc2s1)CCC(C(C)(C)C)C3)C(=N)N` (stereo partly shown) [Example 171], for which the IC50 fell in the range of 1000 to 10000 nM.

On to `CC(C)(C)C1CCc2nc3sc(C(=O)N[C@H](C(=N)N)c4ccccc4)cc3cc2C1` (stereo partly shown) [Example 172], for which the IC50 lay in the range of 100 to 1000 nM.

Regarding `CC(C)(C)C1CCc2nc3sc(C(=O)N[C@@H](Cc4ccccc4)C(=N)N)cc3cc2C1` (stereo partly shown) [Example 173], the IC50 was in the range of 1000 to 10000 nM.

With `CC(C)(C)C1CCc2nc3sc(C(=O)N[C@@H](Cc4ccc(O)cc4)C(=N)N)cc3cc2C1` (stereo partly shown) [Example 174], the IC50 fell in the range of 1000 to 10000 nM.

Consider `CC(C)[C@@H](CN)NC(=O)c1cc2cc3c(nc2s1)CCC(C(C)(C)C)C3` (stereo partly drawn) [Example 175, 6-tert-butyl-5,6,7,8-tetrahydrothieno[2,3-b]quinoline-2-carboxylic acid [(1S)-1-aminomethyl-2-methylpropyl)amide], for which the IC50 fell in the range of 1000 to 10000 nM.

With `C[C@@H](CN)NC(=O)c1cc2cc3c(nc2s1)CCC(C(C)(C)C)C3` (stereo partly shown) [Example 176], the IC50 was under 100 nM.

Turning to `CCC(CN)NC(=O)c1cc2cc3c(nc2s1)CCC(C(C)(C)C)C3` (stereo not shown) [Example 177], the IC50 was under 100 nM.

For the compound `CC(C)(C)C1CCc2nc3sc(C(=O)NC(CN)c4ccccc4)cc3cc2C1` (stereo not shown) [Example 178], the IC50 was under 100 nM.

As to `CC(C)(C)C1CCc2nc3sc(C(=O)N[C@H](CN)Cc4ccccc4)cc3cc2C1` (stereo partly shown) [Example 179], the IC50 was 100 to 1000 nM.

Turning to `CC(C)(C)C1CCc2nc3sc(C(=O)N[C@H](CN)Cc4ccc(O)cc4)cc3cc2C1` (stereo partly shown) [Example 180], the IC50 lay within 100 to 1000 nM.

As for `CC(C)(C)C1CCc2nc3sc(-c4ncc[nH]4)cc3cc2C1` (stereo not shown) [Example 181, 6-tert-Butyl-2-(1H-imidazol-2-yl)-5,6,7,8-tetrahydrothieno[2,3-b]quinoline], the IC50 was in the range of 100 to 1000 nM.

For `CC(C)(C)C1CCc2nc3sc(-c4nnc[nH]4)cc3cc2C1` (stereo not shown) [Example 182, 6-tert-Butyl-2-(4H-[1,2,4]triazol-3-yl)-5,6,7,8-tetrahydrothieno[2,3-b]quinoline], the IC50 fell in the range of 100 to 1000 nM.

With `CC(C)(C)C1CCc2nc3sc(-c4ncc(CO)[nH]4)cc3cc2C1` (stereo not shown) [Example 183, [2-(6-tert-Butyl-5,6,7,8-tetrahydrothieno[2,3-b]quinolin-2-yl)-3H-imidazol-4-yl]methanol], the IC50 fell in the range of 1000 to 10000 nM.

On to `CC(C)(C)C1CCc2nc3sc(-c4ncc(CN)[nH]4)cc3cc2C1` (stereo not shown) [Example 184, [2-(6-tert-Butyl-5,6,7,8-tetrahydrothieno[2,3-b]quinolin-2-yl)-3H-imidazol-4-yl]methylamine], for which the IC50 is 100 to 1000 nM.

Turning to `CC(C)(C)C1CCc2nc3sc(-c4ncc(CO)o4)cc3cc2C1` (stereo not shown) [Example 185, [2-(6-tert-Butyl-5,6,7,8-tetrahydrothieno[2,3-b]quinolin-2-yl)oxazol-5-yl]methanol], the IC50 was 1000 to 10000 nM.

With `CC(C)(C)C1CCc2nc3sc(-c4ncc(CN)o4)cc3cc2C1` (stereo not shown) [Example 186, [2-(6-tert-Butyl-5,6,7,8-tetrahydrothieno[2,3-b]quinolin-2-yl)oxazol-5-yl]methylamine], the IC50 lay within 1000 to 10000 nM.

The same assay, now with this note: exact IC50 values, end-point assay (Table 2); read-out: IC50.
For `CC(C)(C)C1CCc2nc3sc(C(=O)NCC(=N)N)cc3cc2C1` (stereo not shown) [Example 168, 6-tert-Butyl-5,6,7,8-tetrahydrothieno[2,3-b]quinoline-2-carboxylic acid carbamimidoylmethylamide], the IC50 worked out at 8 nM.

Take `CCC(CN)NC(=O)c1cc2cc3c(nc2s1)CCC(C(C)(C)C)C3` (stereo not shown) [Example 177]: the IC50 stood at 65 nM.

`CC(C)(C)C1CCc2nc3sc(C(=O)NC(CN)c4ccccc4)cc3cc2C1` (stereo not shown) [Example 178]: the IC50 came out at 25 nM.
